Assay results from patent publication US20190322698A1, “WATER-SOLUBLE ALLOPR[…] USE THEREOF” (JIANGSU NHWALUOKANG PHARMACEUTICAL RESEARCH AND DEVELOPMENT …, priority 2016, published 2019).

How the values were obtained:
[1] = Stability test of the compounds in a 5% aqueous glucose solution; format: physicochemical; details: room temperature; for Dissociation percent (%): 5% glucose solution, about 0.5 mg/ml, HPLC; for Solution: appearance of the about 0.5 mg/ml solution in 5% glucose
Experimental: Each of the compounds to be tested was weighed (1 mg), placed in a 5% glucose solution (2 ml) and formulated into a solution having a concentration of about 0.5 mg/ml. The solution stood at room temperature, and was sampled at several time points (0.5 h, 1 h, 2 h, 3 h and 5 h).

[2] = Solubility of the compounds in water (25° C.); format: physicochemical
[3] = Dissociation test of the compounds in whole blood of rats; format: in vitro ADME; details: rat whole blood, 37° C., HPLC
Experimental: Each of the compounds to be tested was weighed (1 mg), placed in water (2 ml), and formulated into a solution having a concentration of about 0.5 mg/ml as a stock solution for further use. Whole blood of rats (0.45 ml) was taken and placed in a 2 ml EP tube, which was placed in a 37° C. water bath for preheating for 20 seconds. Then the stock solution of the compound (50 μL) was added quickly. After a homogeneous mixing, the EP tube was placed in a 37° C. water bath, and time counting was initiated. Acetonitrile (1 ml) was injected immediately at predetermined time points (1 min, 3 min, 5 min, 15 min). The solution was centrifuged for 5 min (15000 rpm), filtered with a 0.22 μm filtration membrane and subjected to HPLC detection, and the results were given below: […]

Compound | Dissociation percent (%) ([1]; 0 h) | Dissociation percent (%) ([1]; 0.5 h) | Dissociation percent (%) ([1]; 1 h) | Dissociation percent (%) ([1]; 2 h) | Dissociation percent (%) ([1]; 3 h) | Dissociation percent (%) ([1]; 5 h) | Solution [1] | Solubility [2] [µg/mL] | Dissociation percent (%) ([3]; 1 min) | Dissociation percent (%) ([3]; 3 min) | Dissociation percent (%) ([3]; 5 min) | Dissociation percent (%) ([3]; 15 min)
CC(=O)C1CCC2C3CCC4CC(OC(=O)C(F)CC(=O)[O-])CCC4(C)C3CCC12C.[Na+] (stereo not drawn) [Compound 11] | 0.02 | 0.11 | 0.19 | 0.32 | 0.49 | 0.79 | Clear | >400 | 40.83 | 50.35 | 69.32 | 100
CC(=O)C1CCC2C3CCC4CC(OC(=O)C(F)C(=O)[O-])CCC4(C)C3CCC12C.[Na+] (stereo not drawn) [Compound 10] | 0.02 | 0.14 | 0.21 | 0.36 | 0.51 | 0.86 | Clear | >400 | 39.78 | 52.28 | 72.31 | 100
CC(=O)C1CCC2C3CCC4CC(OC(=O)C(F)CCOP(=O)([O-])[O-])CCC4(C)C3CCC12C.[Na+].[Na+] (stereo not drawn) [Compound 16] | 0.02 | 0.13 | 0.21 | 0.41 | 0.62 | 0.93 | Clear | >300 | 35.94 | 47.88 | 66.47 | 94.56
